Here are results for 18 compounds from patent publication US20110319392A1, “Thiazole Sulfonamide And Oxazole Sulfonamide Kinase Inhibitors” (priority 2009, published 2011).

SMILES strings stand for the structures. Counter-ions that a name gives are not always drawn.

One experiment concerns the target T1, EGFR (Homo sapiens, UniProt P00533).
T1 construct: made in house; host or cells: baculovirus expression system
The experiment is described as follows: EGFR substrate phosphorylation assay (HTRF). It is filed as biochemical. The essentials:
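Baculovirus-expressed EGFR (0.8 nM) or ErbB2 (10 nM) in enzyme mix, preincubated 1 h at 20 °C with compound (0.00027–47.6 μM final), then 90 min at 20 °C with substrate mix of 20 μM ATP, 0.8 uM biotinylated Peptide C, MnCl2, MOPS pH 7.5. Phosphotyrosine by HTRF; pIC50 reported.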
(Time-resolved FRET reads energy transfer from a long-lived donor to a nearby acceptor.)

The next experiment relates to HN5 tumor cells. The experiment is described as follows: Cell growth inhibition assay (CellTiter-Glo), HN5. In kind it is cell-based, Human. The following applies: Homo sapiens, 72 h; 3 days incubation. The procedure, abridged: (§1)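 Cells seeded at 500/well (HN5 and HT-29 in high-glucose DMEM/10% FBS; A375P F11s in RPMI/10% FBS with pyruvate; SK-MEL-3 in McCoy's 5A/15% FBS), then exposed next day to 1:3 serial compound dilutions (0.2% DMSO) for 3 days at 37° C. CellTiter-Glo luminescence measured ATP; IC50 derived by 4-parameter fit.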
For orientation: ATP-based viability assays read luminescence as a measure of living cells.

The next experiment concerns A375P F11s tumor cells. The experiment is described as follows: Cell growth inhibition assay (CellTiter-Glo), A375P F11s. It is filed as cell-based, Human. To be noted: Homo sapiens. The procedure, abridged: as §1
The next experiment deals with HT-29 tumor cells. The experiment is described as follows: Cell growth inhibition assay (CellTiter-Glo), HT-29. To be noted: Homo sapiens. It is filed as cell-based, Human. The essentials:
as §1

T1 sequence (P00533 25-1210): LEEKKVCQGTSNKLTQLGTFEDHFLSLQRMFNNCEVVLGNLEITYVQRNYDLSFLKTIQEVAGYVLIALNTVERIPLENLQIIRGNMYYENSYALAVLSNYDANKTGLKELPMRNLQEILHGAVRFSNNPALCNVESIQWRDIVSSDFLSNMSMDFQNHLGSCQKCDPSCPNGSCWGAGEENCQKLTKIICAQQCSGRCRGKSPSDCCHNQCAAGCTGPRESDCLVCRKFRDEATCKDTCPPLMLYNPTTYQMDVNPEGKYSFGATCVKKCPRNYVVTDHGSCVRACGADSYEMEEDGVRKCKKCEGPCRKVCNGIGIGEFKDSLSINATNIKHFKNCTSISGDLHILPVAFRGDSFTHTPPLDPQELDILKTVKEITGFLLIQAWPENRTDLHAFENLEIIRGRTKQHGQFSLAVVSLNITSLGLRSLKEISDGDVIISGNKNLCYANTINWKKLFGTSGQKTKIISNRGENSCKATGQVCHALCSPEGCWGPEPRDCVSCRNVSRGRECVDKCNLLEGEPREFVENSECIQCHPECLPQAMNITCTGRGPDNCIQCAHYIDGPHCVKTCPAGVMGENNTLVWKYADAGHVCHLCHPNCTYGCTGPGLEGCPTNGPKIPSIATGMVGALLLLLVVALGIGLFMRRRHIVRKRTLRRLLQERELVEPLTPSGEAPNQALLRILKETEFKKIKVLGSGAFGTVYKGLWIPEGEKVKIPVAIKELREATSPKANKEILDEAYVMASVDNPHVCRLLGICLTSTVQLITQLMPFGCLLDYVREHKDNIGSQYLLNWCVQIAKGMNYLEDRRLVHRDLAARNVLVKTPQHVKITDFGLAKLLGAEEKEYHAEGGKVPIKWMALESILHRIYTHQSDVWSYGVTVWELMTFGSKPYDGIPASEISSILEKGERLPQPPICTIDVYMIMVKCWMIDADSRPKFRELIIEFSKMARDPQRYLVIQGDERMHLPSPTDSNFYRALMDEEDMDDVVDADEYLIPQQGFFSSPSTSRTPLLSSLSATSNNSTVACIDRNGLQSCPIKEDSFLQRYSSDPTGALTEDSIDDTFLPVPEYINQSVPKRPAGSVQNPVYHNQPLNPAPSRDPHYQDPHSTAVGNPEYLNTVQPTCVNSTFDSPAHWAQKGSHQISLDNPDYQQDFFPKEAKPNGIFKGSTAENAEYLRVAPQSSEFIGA

By IC50 is commonly meant the midpoint of a concentration-inhibition curve. The low end stands for higher potency, the high end for lower potency. `COc1ccc(Nc2nccc(-c3sc(C(C)C)nc3-c3cccc(NS(=O)(=O)c4ccccc4)c3)n2)cc1N1CCN(CCC#N)CC1` [Example 9, N-{3-[5-(2-{[3-[4-(2-Cyanoethyl)-1-piperazinyl]-4-(methyloxy)phenyl]amino}-4-pyrimidinyl)-2-(1-methylethyl)-1,3-thiazol-4-yl]phenyl}benzenesulfonamide]: the IC50 is less than 100 nM against EGFR, 100 to 1000 nM in the experiment on HN5 tumor cells, less than 100 nM in the experiment on A375P F11s tumor cells and 100 to 1000 nM in the experiment with HT-29 tumor cells.
For the compound `O=S(=O)(Nc1cc(-c2nc(N3CCCC3)oc2-c2ccnc(Nc3ccc(N4CCN(CCF)CC4)c(F)c3)n2)ccc1F)c1c(F)cccc1F` [Example 114], the IC50 on EGFR was more than 1000 nM; in the experiment on HN5 tumor cells, more than 1000 nM; in the experiment with A375P F11s tumor cells it was 100 to 1000 nM; in the experiment on HT-29 tumor cells it was more than 1000 nM.
Regarding `O=S(=O)(Nc1cccc(-c2nc(N3CCCC3)sc2-c2ccnc(Nc3ccc(N4CCN(CCF)CC4)c(F)c3)n2)c1)c1c(F)cccc1F` [Example 21, 2,6-Difluoro-N-{3-[5-[2-({3-fluoro-4-[4-(2-fluoroethyl)-1-piperazinyl]phenyl}amino)-4-pyrimidinyl]-2-(1-pyrrolidinyl)-1,3-thiazol-4-yl]phenyl}benzenesulfonamide], the 50% inhibitory concentration (IC50) was less than 100 nM against EGFR, 100 to 1000 nM in the experiment on HN5 tumor cells, less than 100 nM with A375P F11s tumor cells and less than 100 nM in the experiment on HT-29 tumor cells.
Take `CC(C)c1nc(-c2ccc(F)c(NS(=O)(=O)c3ccccc3C#N)c2)c(-c2ccnc(Nc3ccc(N4CCOCC4)nc3)n2)s1` [Example 107]: the IC50 was 100 to 1000 nM against EGFR, more than 1000 nM in the experiment with HN5 tumor cells, 100 to 1000 nM with A375P F11s tumor cells and 100 to 1000 nM in the experiment with HT-29 tumor cells.
Take `CC(C)c1nc(-c2cc(F)c(F)c(NS(=O)(=O)c3cccc(F)c3)c2)c(-c2ccnc(Nc3cnc(N4CCOCC4)c(F)c3)n2)s1` [Example 31, N-{2,3-Difluoro-5-[5-(2-{[5-fluoro-6-(4-morpholinyl)-3-pyridinyl]amino}-4-pyrimidinyl)-2-(1-methylethyl)-1,3-thiazol-4-yl]phenyl}-3-fluorobenzenesulfonamide]: the IC50 is more than 1000 nM against EGFR, more than 1000 nM in the experiment on HN5 tumor cells, 100 to 1000 nM with A375P F11s tumor cells and less than 100 nM with HT-29 tumor cells.
Turning to `CC(=O)N1CCN(c2ccc(Nc3nccc(-c4sc(C(C)C)nc4-c4cccc(NS(=O)(=O)c5cccc(C(F)(F)F)c5)c4)n3)cn2)CC1` [Example 70], the IC50 at EGFR is more than 1000 nM; in the experiment with HN5 tumor cells, more than 1000 nM; in the experiment with A375P F11s tumor cells, 100 to 1000 nM; with HT-29 tumor cells it was more than 1000 nM.
Consider `CC(C)c1nc(-c2cccc(NS(=O)(=O)c3c(F)cccc3F)c2)c(-c2ccnc(Nc3ccc(N4CCOCC4)nc3)n2)s1` [Example 17, 2,6-Difluoro-N-{3-[2-(1-methylethyl)-5-(2-{[6-(4-morpholinyl)-3-pyridinyl]amino}-4-pyrimidinyl)-1,3-thiazol-4-yl]phenyl}benzenesulfonamide], for which the IC50 at EGFR was 100 to 1000 nM; in the experiment with HN5 tumor cells, 100 to 1000 nM; in the experiment with A375P F11s tumor cells, less than 100 nM; in the experiment on HT-29 tumor cells, less than 100 nM.
For `CC(C)c1nc(-c2cccc(NS(=O)(=O)c3c(F)cccc3F)c2)c(-c2ccnc(Nc3ccc(N4CCN5CCOC[C@H]5C4)nc3)n2)s1` [Example 15], the IC50 was 100 to 1000 nM against EGFR, 100 to 1000 nM with HN5 tumor cells, less than 100 nM in the experiment with A375P F11s tumor cells and less than 100 nM in the experiment with HT-29 tumor cells.
Consider `CC(C)c1nc(-c2ccc(F)c(NS(=O)(=O)c3ccccc3F)c2)c(-c2ccnc(Nc3ccc(N4CCN(CCS(C)(=O)=O)CC4)c(F)c3)n2)s1` [Example 22, 2-Fluoro-N-{2-fluoro-5-[5-{2-[(3-fluoro-4-}4-[2-(methylsulfonyl)ethyl]-1-piperazinyl}phenyl)amino]-4-pyrimidinyl}-2-(1-methylethyl)-1,3-thiazol-4-yl]phenyl}benzenesulfonamide hydrochloride], for which the IC50 is 100 to 1000 nM against EGFR, more than 1000 nM in the experiment on HN5 tumor cells, less than 100 nM in the experiment with A375P F11s tumor cells and 100 to 1000 nM in the experiment on HT-29 tumor cells.
In the case of `CC(C)c1nc(-c2ccc(F)c(NS(=O)(=O)c3c(F)cccc3F)c2)c(-c2ccnc(Nc3ccnc(N4CCOCC4)c3)n2)s1` [Example 117], the IC50 against EGFR, in the experiment with HN5 tumor cells, with A375P F11s tumor cells and with HT-29 tumor cells was 100 to 1000 nM throughout.
With `CC(C)c1nc(-c2cccc(NS(=O)(=O)c3cccnc3)c2)c(-c2ccnc(Nc3ccc(N4CCOCC4)nc3)n2)s1` [Example 52], the IC50 is 100 to 1000 nM against EGFR, 100 to 1000 nM with HN5 tumor cells, less than 100 nM in the experiment on A375P F11s tumor cells and less than 100 nM in the experiment on HT-29 tumor cells.
For `O=S(=O)(Nc1cccc(-c2ncsc2-c2ccnc(Nc3ccc(N4CCOCC4)nc3)n2)c1)c1c(F)cccc1F` [Example 162], the IC50 against EGFR was 100 to 1000 nM; in the experiment with HN5 tumor cells, 100 to 1000 nM; with A375P F11s tumor cells it was less than 100 nM; in the experiment with HT-29 tumor cells it was 100 to 1000 nM.
As for `COc1cc(N2CCN(CCS(C)(=O)=O)CC2)c(C)cc1Nc1nccc(-c2sc(N3CCOCC3)nc2-c2cccc(NS(=O)(=O)c3c(F)cccc3F)c2)n1` [Example 128], the IC50 is less than 100 nM on EGFR, 100 to 1000 nM with HN5 tumor cells, 100 to 1000 nM with A375P F11s tumor cells and less than 100 nM with HT-29 tumor cells.
With `CC(C)c1nc(-c2ccnc(NS(=O)(=O)c3c(F)cccc3F)c2)c(-c2ccnc(Nc3cnc(N4CCOCC4)c(F)c3)n2)s1` [Example 33], the IC50 against EGFR was more than 1000 nM; in the experiment with HN5 tumor cells it was more than 1000 nM; in the experiment with A375P F11s tumor cells, less than 100 nM; in the experiment on HT-29 tumor cells it was 100 to 1000 nM.
Consider `CC(C)c1nc(-c2ccc(F)c(NS(=O)(=O)c3c(F)cccc3F)c2)c(-c2ccnc(Nc3ccc(N4CCOCC4)nc3)n2)s1` [Example 23, 2,6-Difluoro-N-{2-fluoro-5-[2-(1-methylethyl)-5-(2-{[6-(4-morpholinyl)-3-pyridinyl]amino}-4-pyrimidinyl)-1,3-thiazol-4-yl]phenyl}benzenesulfonamide], for which the IC50 is 100 to 1000 nM at EGFR, more than 1000 nM with HN5 tumor cells, less than 100 nM in the experiment with A375P F11s tumor cells and less than 100 nM in the experiment on HT-29 tumor cells.
With `CN(C)c1nc(-c2ccc(F)c(NS(=O)(=O)c3c(F)cccc3F)c2)c(-c2ccnc(Nc3ccc(N4CCOCC4)nc3)n2)s1` [Example 27, N-{5-[2-(Dimethylamino)-5-(2-{[6-(4-morpholinyl)-3-pyridinyl]amino}-4-pyrimidinyl)-1,3-thiazol-4-yl]-2-fluorophenyl}-2,6-difluorobenzenesulfonamide], the IC50 is 100 to 1000 nM against EGFR, more than 1000 nM in the experiment on HN5 tumor cells, less than 100 nM in the experiment with A375P F11s tumor cells and 100 to 1000 nM with HT-29 tumor cells.
On to `CN1CCC(c2nc(-c3ccc(F)c(NS(=O)(=O)c4c(F)cccc4F)c3)c(-c3ccnc(Nc4ccc(N5CCOCC5)nc4)n3)s2)CC1` [Example 106], for which the IC50 against EGFR was 100 to 1000 nM; with HN5 tumor cells, 100 to 1000 nM; in the experiment on A375P F11s tumor cells, less than 100 nM; in the experiment with HT-29 tumor cells it was 100 to 1000 nM.
Regarding `CC(C)c1nc(-c2ccc(F)c(NS(=O)(=O)c3c(F)cccc3F)c2)c(-c2ccnc(Nc3ccc(N4CCN5CCOC[C@H]5C4)nc3)n2)s1` [Example 97], the IC50 was 100 to 1000 nM at EGFR, more than 1000 nM in the experiment on HN5 tumor cells, less than 100 nM in the experiment on A375P F11s tumor cells and more than 1000 nM with HT-29 tumor cells.
